Assay results published in patent US20230172206A1 (BASF SE, priority 2020, published 2023).
Several values for one entry are separate records, joined by “and”; a condition that tells them apart may be missing. Equal entries are not always repeated. Where two headings read alike, the source gives them in different places.

Assays:
[1] = test system: Alternaria solani (F129L); assay: Micro titer plate test against early blight (ALTESO F129L); format: cell-based; conditions: 0.016 ppm, 7 days after inoculation, relative to compound-free control (100%)
Alternaria solani (wt) = format: cell-based
Septoria tritici = assay: Micro titer plate test against leaf blotch on wheat (SEPTTR); format: cell-based
[2] = test system: Phakopsora pachyrhizi (F129L); assay: Protective control of soybean rust on soybeans (PHAKPA P6); format: in vivo
Cercospora sojina = format: cell-based; conditions: 4 ppm, 7 days after inoculation, relative to compound-free control (100%)
Pyrenophora teres (wt) = assay: Micro titer plate test against net blotch on barley (PYRNTE wt); format: cell-based; conditions: 0.25 ppm, 7 days after inoculation, relative to compound-free control (100%)
Microdochium nivale = format: cell-based; conditions: 0.016 ppm, 7 days after inoculation, relative to compound-free control (100%)
Leptosphaeria nodorum = assay: Micro titer plate test against wheat leaf spots (LEPTNO); format: cell-based; conditions: 0.063 ppm, 7 days after inoculation, relative to compound-free control (100%)
[3] = test system: Colletotrichum orbiculare; assay: Micro titer plate test against anthracnose (COLLLA); format: cell-based; conditions: 0.063 ppm, 7 days after inoculation, relative to compound-free control (100%)
[4] = test system: Phakopsora pachyrhizi (F129L); assay: Protective control of soybean rust on soybeans (PHAKPA P2); format: in vivo; conditions: for PHAKPA (F129L) Disease level (%) P2 at 4 ppm: protective, inoculation 2 days after spraying, % diseased leaf area
[5] = test system: Phakopsora pachyrhizi (wt); assay: Protective control of soybean rust on detached soybean leaves (PHAKPA P1 DL), Qo inhibitor-sensitive wt isolate; format: in vivo
[6] = test system: Phakopsora pachyrhizi (F129L); assay: Protective control of soybean rust on detached soybean leaves (PHAKPA P1 DL), F129L isolate; format: in vivo
[7] = 0.016 ppm, 7 days after inoculation, relative to compound-free control (100%)
[8] = 0.25 ppm, 7 days after inoculation, relative to compound-free control (100%)

Q: For `CNC(=O)/C(=N/OC)c1cccc(C)c1CO/N=C(/c1cccc(C)c1)C1CC1`, which “Fungal growth (%) ALTESO F129L” value [1] is on record?
A: 93%

Q: What about the “Fungal growth (%) ALTESO wt” value (Alternaria solani (wt); [7]) of the same compound?
A: 89%

Q: What about the “Fungal growth (%) SEPTTR” value (Septoria tritici; [8]) of the same compound?
A: 87%

Q: With `CNC(=O)/C(=N/OC)c1cccc(C)c1CO/N=C(\C)c1cccc(C(F)(F)F)c1` [compound 8] as the compound, how does the “Fungal growth (%) ALTESO F129L” value ([1]; listed as Ex. 8) read?
A: 55% and 52%

Q: What about the “Fungal growth (%) ALTESO wt” value (Alternaria solani (wt)) of the same compound?
A: 56%

Q: And the “Fungal growth (%) SEPTTR” value (Septoria tritici)?
A: 57%

Q: Which results are given for `CO/N=C(/C(=O)OC)c1cccc(C)c1CO/N=C(\C)c1cccc(C)c1` [compound 76]?
A: Fungal growth (%) ALTESO F129L [1]: 37%; Fungal growth (%) ALTESO wt (Alternaria solani (wt); [7]): 55%; Fungal growth (%) SEPTTR (Septoria tritici; [8]): 0%; PHAKPA (F129L) Disease level (%) P6 at 16 ppm ([2]; protective, inoculation six days after spraying, % diseased leaf area, listed as Ex. 76): 0% and 4%; Fungal growth (%) CERCSO (Cercospora sojina): 28%

Q: How did the “Fungal growth (%) ALTESO F129L” value [1] turn out when `CO/N=C(/C(=O)OC)c1cccc(C)c1CO/N=C(\C)c1cccc(Cl)c1` [compound 153] was run?
A: 68%

Q: What about the “Fungal growth (%) ALTESO wt” value (Alternaria solani (wt); [7]) of the same compound?
A: 71%

Q: And the “Fungal growth (%) SEPTTR” value (Septoria tritici; [8])?
A: 0%

Q: And the “Fungal growth (%) PYRNTE wt” value (Pyrenophora teres (wt))?
A: 31%

Q: And the “Fungal growth (%) MONGNI” value (Microdochium nivale)?
A: 75%

Q: And the “PHAKPA (F129L) Disease level (%) P6 at 16 ppm” value ([2]; protective, inoculation six days after spraying, % diseased leaf area, listed as Ex. 153)?
A: 1% and 5%

Q: What about the “Fungal growth (%) LEPTNO” value (Leptosphaeria nodorum) of the same compound?
A: 55%

Q: What about the “Fungal growth (%) COLLLA” value [3] of the same compound?
A: 55%

Q: What about the “Fungal growth (%) CERCSO” value (Cercospora sojina) of the same compound?
A: 26%

Q: `CNC(=O)/C(=N/OC)c1cccc(C)c1CO/N=C(\C)c1cccc(Cl)c1` [compound 157] was tested. Which “Fungal growth (%) ALTESO F129L” value [1] did it give?
A: 57%

Q: And the “Fungal growth (%) ALTESO wt” value (Alternaria solani (wt); [8])?
A: 27%

Q: And the “Fungal growth (%) SEPTTR” value (Septoria tritici; [8])?
A: 20%

Q: And the “Fungal growth (%) PYRNTE wt” value (Pyrenophora teres (wt))?
A: 54%

Q: What about the “Fungal growth (%) MONGNI” value (Microdochium nivale) of the same compound?
A: 56%

Q: And the “PHAKPA (F129L) Disease level (%) P2 at 4 ppm” value ([4]; listed as Ex. 157)?
A: 0% and 1%

Q: What about the “Fungal growth (%) COLLLA” value [3] of the same compound?
A: 63%

Q: What about the “Fungal growth (%) CERCSO” value (Cercospora sojina) of the same compound?
A: 36%

Q: For `CNC(=O)/C(=N/OC)c1cccc(C)c1CO/N=C(\C)c1ccc(Cl)cc1` [compound 158], which “Fungal growth (%) ALTESO F129L” value [1] is on record?
A: 79%

Q: What about the “Fungal growth (%) ALTESO wt” value (Alternaria solani (wt); [7]) of the same compound?
A: 66%

Q: And the “PHAKPA P1 DL Disease level (%) Qo I-sensitive wt isolate (0 % F129L)” value (from here on “PHAKPA P1 DL Disease level … (0 % F129L)”) ([5]; test concentration 0.3 ppm)?
A: 38%

Q: And the “PHAKPA P1 DL Disease level … (0 % F129L)” value ([5]; test concentration 1 ppm)?
A: 7%

Q: And the “PHAKPA P1 DL Disease level … (0 % F129L)” value ([5]; test concentration 3 ppm)?
A: 2%

Q: And the “PHAKPA P1 DL Disease level … (0 % F129L)” value ([5]; test concentration 10 ppm)?
A: 1%

Q: And the “PHAKPA P1 DL Disease level … (0 % F129L)” value ([5]; test concentration 30 ppm)?
A: 4%

Q: What about the “PHAKPA P1 DL Disease level … (0 % F129L)” value ([5]; test concentration 100 ppm) of the same compound?
A: 5%

Q: And the “PHAKPA P1 DL Disease level … (0 % F129L)” value ([5]; test concentration 300 ppm)?
A: 4%

Q: What about the “Fungal growth (%) MONGNI” value (Microdochium nivale) of the same compound?
A: 71%

Q: And the “% PHAKPA (F129L) Disease level P2 at 4 ppm” value ([4]; protective P2, 4 ppm, soybean rust F129L isolate)?
A: 0%

Q: And the “% PHAKPA (F129L) Disease level P2 at 16 ppm” value ([4]; protective P2, 16 ppm, soybean rust F129L isolate)?
A: 0%

Q: What about the “PHAKPA (F129L) Disease level (%) P2 at 4 ppm” value [4] of the same compound?
A: 1%

Q: What about the “% PHAKPA (F129L) Disease level P6 at 4 ppm” value ([2]; protective P6, 4 ppm, soybean rust F129L isolate) of the same compound?
A: 2%

Q: And the “% PHAKPA (F129L) Disease level P6 at 16 ppm” value ([2]; protective P6, 16 ppm, soybean rust F129L isolate)?
A: 0%

Q: And the “PHAKPA (F129L) Disease level (%) P6 at 4 ppm” value ([2]; protective, inoculation six days after spraying, 4 ppm, % diseased leaf area)?
A: 4%

Q: What about the “PHAKPA P1 DL Disease level (%) Qo I-resistant F129L isolate (100 % F129L)” value (“PHAKPA P1 DL Disease level … (100 % F129L)” for short) ([6]; test concentration 0.3 ppm) of the same compound?
A: 87%

Q: What about the “PHAKPA P1 DL Disease level … (100 % F129L)” value ([6]; test concentration 1 ppm) of the same compound?
A: 57%

Q: What about the “PHAKPA P1 DL Disease level … (100 % F129L)” value ([6]; test concentration 3 ppm) of the same compound?
A: 8%

Q: And the “PHAKPA P1 DL Disease level … (100 % F129L)” value ([6]; test concentration 10 ppm)?
A: 2%

Q: And the “PHAKPA P1 DL Disease level … (100 % F129L)” value ([6]; test concentration 30 ppm)?
A: 4%

Q: And the “PHAKPA P1 DL Disease level … (100 % F129L)” value ([6]; test concentration 100 ppm)?
A: 4%

Q: What about the “PHAKPA P1 DL Disease level … (100 % F129L)” value ([6]; test concentration 300 ppm) of the same compound?
A: 5%

Q: Which results are given for `Cc1cccc(-n2nnn(C)c2=O)c1COc1ccn(-c2ccc(Cl)cc2)n1` [drawing 930]?
A: Fungal growth (%) ALTESO F129L [1]: 100%; Fungal growth (%) ALTESO wt (Alternaria solani (wt); [7]): 98%; Fungal growth (%) MONGNI (Microdochium nivale): 97%

Q: For `CNC(=O)/C(=N/OC)c1cccc(C)c1CO/N=C(\OC)c1cccc(C(F)(F)F)c1` [drawing 948], which “Fungal growth (%) ALTESO F129L” value [1] is on record?
A: 87%

Q: And the “Fungal growth (%) ALTESO wt” value (Alternaria solani (wt); [7])?
A: 100%

Q: What about the “Fungal growth (%) SEPTTR” value (Septoria tritici; [8]) of the same compound?
A: 77%

Q: For `CO/N=C(/C(=O)OC)c1cccc(C)c1CO/N=C(\SC)c1cccc(Cl)c1` [drawing 962], which “Fungal growth (%) ALTESO F129L” value [1] is on record?
A: 100%

Q: What about the “Fungal growth (%) ALTESO wt” value (Alternaria solani (wt); [7]) of the same compound?
A: 94%

Q: What about the “Fungal growth (%) SEPTTR” value (Septoria tritici; [8]) of the same compound?
A: 39%

Q: `CO/N=C(/C(=O)OC)c1cccc(C)c1CO/N=C(/c1cccc(Cl)c1)C1CC1` [drawing 963] was tested. Which “Fungal growth (%) ALTESO F129L” value [1] did it give?
A: 89%

Q: What about the “Fungal growth (%) ALTESO wt” value (Alternaria solani (wt); [7]) of the same compound?
A: 81%

Q: What about the “Fungal growth (%) SEPTTR” value (Septoria tritici; [8]) of the same compound?
A: 39%

Q: Which results are given for `CNC(=O)/C(=N/OC)c1cccc(C)c1CO/N=C(\SC)c1cccc(Cl)c1` [drawing 968]?
A: Fungal growth (%) ALTESO F129L [1]: 90%; Fungal growth (%) ALTESO wt (Alternaria solani (wt); [8]): 43%; Fungal growth (%) SEPTTR (Septoria tritici; [8]): 59%
